# From patent publication US20250296938A1, “Compounds that Interact with the Ras Superfamily for the Treatment of Cancers, Inflammatory Diseases, Rasopathies, and Fibrotic Disease” (SHY Therapeutics, LLC, priority 2018, published 2025)
# Read-outs that look alike come from different tables or passages of the source.
# Legend:
# HRas wild type = experiment: Ras GTP binding domain inhibition assay (Cy3-GTP/Cy5-GTP competition); design: species or system human; settings: at 20 μM; for HRAS wild type + SOS: % inh.: with SOS; for HRas wild type % inh.: without SOS
# In short: (§1)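 His-tagged Ras immobilized on nickel-coated wells in Tris buffer (pH 7.4 or 7.0) with 1 mM MgCl2, 1 mM DTT, 1% DMSO. Compound (20 μM, or serial dilution for IC50) incubated 3 hours at room temperature, ± Sos (residues 556-1049) in final hour. Bound 100 nM Cy3-/Cy5-GTP read after 45 minutes and washing.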
# KRas G12D mutant = biological target: T1, KRas G12D mutant (Homo sapiens, UniProt P01116, G12D); experiment: as above; settings: at 20 μM
# T1 construct: fused on or other part: His tag, used for capture on nickel-coated plates
# In short: as §1
# Rac-1 = Rac-1 (Homo sapiens, UniProt P63000); experiment: as above
# In short: (§2)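 First, His-tagged protein is coated on nickel wells overnight at 4 °C. Next, compound (20 μM single point or serial dilution) is added for 3 h at room temperature, with or without Sos exchange factor in the last hour. Finally, 100 nM labelled GTP binds for 45 min and retained signal is measured.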
# Rho-A = Rho-A (Homo sapiens, UniProt P61586); experiment: as above; settings: for Rho-A + SOS: % inh. / Rho-A: % inh.: at 20 μM
# In short: as §2
# MAPK phosphorylation [1] = experiment: MAPK cell-based phosphorylation assay (ELISA or Western), PANC-1; settings: Homo sapiens; 10 μM, 6 hours, EGF stimulation, PANC-1
# In short: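 Serum-starved (0.5% FBS overnight) cells given compound at 10 μM or serial dilutions (0.3% DMSO) for 6 h at 37 °C, then 1.5 ng/mL EGF for 15 min. Phospho-MAPK read by fixed-cell ELISA (fluorescence, 595 nm) or by Western blot of lysates with anti-phospho-p44/42 (Thr202/Tyr204).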
# MAPK phosphorylation [2] = experiment: Western MAPK cell-based phosphorylation assay, BxPC3; settings: Homo sapiens, BXPC-3, 10 μM, 6 hours, EGF stimulation
# Procedure: (§3) Cell lines: Human NSCLC cells NCI-H1975 and NCI-H1299, and tumor-derived pancreatic cancer cell lines Panc-1, MIA-PaCa-2, and BxPC3, were all purchased from American Type Culture Collection and grown in complete RPMI medium (BxPC3, NCI-H1975 and NCI-H1299) or DMEM-High Glucose (Panc1 and MIA-PaCa-2), supplemented with penicillin (100 U/mL), streptomycin (100 μg/mL), and 10% heat-inactivated FBS at 37° C. in a humidified incubator with 5% CO2.
# (§4) Method: Cells were plated at 350000 cells/well density in a 12-well plate, allowed 3 hours to adhere to the plate, then starved in the appropriate medium in the presence of 0.5% FBS overnight. The small molecules to be tested were added to the cells in the final concentration of 10 μM in the presence of 0.3% DMSO for 6 hours incubation at 37° C. For IC50 value determination, serial dilutions of compounds were added to cells under the same conditions. Next, cells were stimulated with 1.5 ng/ml EGF for 15 minutes then cells were lysed with lysis buffer containing 1% Triton X-100, EDTA, and Halt™ Protease & Phosphatase Inhibitor Cocktail (Thermo Scientific). Protein concentration was assessed by BCA protein assay (Thermo Scientific). Phosphorylation level of MAPK was determined by western blot.
# (§5) Western blot protocol: Equal amounts of protein (15-50 μg) were separated by SDS-PAGE and transferred to nitrocellulose membranes (Invitrogen by Thermo Fisher Scientific). The membrane was stained with Ponceau S Stain (Boston BioProducts) to verify uniform protein loading. Membranes were blocked with 10% milk and phosphorylation levels of MAPK were assessed by incubating overnight at 4° C. with anti-phospho-p44/42 (Thr202/Tyr204) antibody (Cell Signaling) followed by HRP-conjugated secondary antibody (Jackson Immunoresearch, West Grove, PA). Bands were incubated in Amersham ECL Prime Western Blotting Detection Reagent (GE Healthcare) and visualized using the ChemiDoc MP imaging system (Bio-Rad).
# MAPK phosphorylation [3] = experiment: Western MAPK cell-based phosphorylation assay, MIA PaCa-2; settings: Homo sapiens, 10 μM, 6 hours, EGF stimulation
# Procedure: as §3, §4, §5
# AKT phosphorylation = experiment: Western AKT cell-based phosphorylation assay, PANC-1; settings: Homo sapiens, 6 hours, EGF stimulation, PANC-1
# In short: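 PANC-1 cells, serum-starved overnight in 0.5% FBS, were treated with compound at 10 μM (0.3% DMSO) for 6 h at 37 °C and then stimulated with 1.5 ng/ml EGF for 15 min. Lysates (15–50 μg) were immunoblotted for phospho-Akt Ser473, with ECL detection.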
# [4] = system: MIA PaCa-2 pancreatic cancer cell line; experiment: Cell proliferation assay (DAPI); type: cell-based; settings: Homo sapiens, MIA PaCa-2; for inhibition at 10 µM: 2-4 days, read-out: % Inhibition of cell proliferation, MIA PaCa-2 % inh
# In short: (§6)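 After 2–4 days' exposure at 37 °C to 10 µM compound or serial dilutions (IC50), in 0.3% DMSO with 10% FBS, cells were acetone–methanol fixed and DAPI-stained for total DNA, read at 358 nm ex/461 nm em. Media: RPMI for NCI-H1975 and BxPC3, DMEM-high glucose for PANC-1 and MIA PaCa-2.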
# [5] = system: NCI H1975 non-small-cell lung cancer cell line; experiment: Cell proliferation assay (DAPI); type: cell-based; settings: Homo sapiens
# In short: as §6
# [6] = system: PANC-1 pancreatic cancer cell line; experiment: Cell proliferation assay (DAPI); type: cell-based; settings: Homo sapiens
# In short: as §6
# [7] = with SOS, read-out: KRas G12D mutant + SOS: % inh.
# [8] = without SOS, read-out: KRas G12D mutant: % inh.
# [9] = with SOS, read-out: Rac-1 + SOS: % inh.
# [10] = without SOS, read-out: Rac-1: % inh.
# [11] = with SOS, read-out: Rho-A + SOS: % inh.
# [12] = without SOS, read-out: Rho-A: % inh.
SMILES,HRAS wild type + SOS: % inh. (HRas wild type),HRas wild type % inh. (HRas wild type),inhibition at 20 µM (KRas G12D mutant; [7]),inhibition at 20 µM (KRas G12D mutant; [8]),inhibition at 20 µM (Rac-1; [9]),inhibition at 20 µM (Rac-1; [10]),inhibition at 20 µM (Rho-A; [11]),inhibition at 20 µM (Rho-A; [12]),other results
COC1CCC(Nc2nc(-c3nccn3C)nc3sc(-c4cccc5[nH]ncc45)c(-c4ccccc4)c23)C1 (centres unmarked) [drawing 1023],D (76-100% inhibition),B (26-50% inhibition),26 to 50%,26 to 50%,51 to 75%,51 to 75%,1 to 25%,26 to 50%,–
COCC(C)Nc1nc(-c2nccn2C)nc2sc(-c3cccc(OC)c3)c(-c3cscn3)c12 (centres unmarked) [drawing 416],–,–,–,–,–,–,–,–,inhibition at 10 µM (MAPK phosphorylation [1]): 76 to 100%; inhibition at 10 µM (MAPK phosphorylation [2]): 76 to 100%; inhibition at 10 µM (MAPK phosphorylation [3]): 26 to 50%; inhibition at 10 µM (AKT phosphorylation): 0%
COCC(C)Nc1nc(-c2nccn2C)nc2sc(-c3ccccc3Cl)c(-c3cscn3)c12 (centres unmarked) [drawing 414],–,–,–,–,–,–,–,–,inhibition at 10 µM (MAPK phosphorylation [1]): 76 to 100%; inhibition at 10 µM (MAPK phosphorylation [2]): 26 to 50%; inhibition at 10 µM (MAPK phosphorylation [3]): 76 to 100%; inhibition at 10 µM (AKT phosphorylation): 0%
COCCNc1nc(-c2nccn2C)nc2sc(-c3cccc(OC)c3)c(-c3ccc(OC)cc3)c12 [drawing 561],–,–,–,–,–,–,–,–,IC50 [4]: > 1000 nM; inhibition at 10 µM [4]: 76 to 100%; IC50 [5]: > 1000 nM
COc1cccc(-c2sc3nc(-c4nccn4C)nc(NC4CCC(OC)C4)c3c2-c2ccccc2)c1F (centres unmarked) [drawing 1018],D (76-100% inhibition),D (76-100% inhibition),51 to 75%,26 to 50%,–,51 to 75%,–,–,"Rac-1 + SOS: % inh. (Rac-1; at 20 μM, with SOS): C (51-75% inhibition); Rho-A + SOS: % inh. (Rho-A; with SOS): C (51-75% inhibition); Rho-A: % inh. (Rho-A; without SOS): C (51-75% inhibition)"
COCCNc1nc(-c2nccn2C)nc2sc(-c3cccc(OC)c3Cl)c(-c3ccccc3)c12 [drawing 567],–,–,–,–,–,–,–,–,IC50 [4]: 750 to 1000 nM; inhibition at 10 µM [4]: 76 to 100%; IC50 [5]: 750 to 1000 nM; IC50 [6]: 750 to 1000 nM
COCCNc1nc(-c2nccn2C)nc2sc(-c3cc(OC)ccc3Cl)c(-c3ccccc3)c12 [drawing 426],–,–,–,–,–,–,–,–,inhibition at 10 µM (MAPK phosphorylation [1]): 51 to 75%; inhibition at 10 µM (MAPK phosphorylation [2]): 26 to 50%; inhibition at 10 µM (MAPK phosphorylation [3]): 76 to 100%
COCCNc1nc(-c2cn(C)cn2)nc2sc(-c3ccccc3Cl)c(-c3ccc(OC)cc3)c12 [drawing 564],–,–,–,–,–,–,–,–,IC50 [4]: > 1000 nM; inhibition at 10 µM [4]: 76 to 100%; IC50 [5]: > 1000 nM
CO[C@H]1C[C@@H](Nc2nc(-c3nccn3C)nc3sccc23)C1 [drawing 1038],D (76-100% inhibition),C (51-75% inhibition),76 to 100%,76 to 100%,76 to 100%,76 to 100%,26 to 50%,76 to 100%,–
COCCNc1nc(-c2nccn2C)nc2sc(-c3cc(OC)ccc3Cl)c(-c3ccc(OC)cc3)c12 [drawing 421],–,–,–,–,–,–,–,–,inhibition at 10 µM (MAPK phosphorylation [1]): 51 to 75%; inhibition at 10 µM (MAPK phosphorylation [2]): 0%; inhibition at 10 µM (MAPK phosphorylation [3]): 0%; inhibition at 10 µM (AKT phosphorylation): 0%
COCCNc1nc(-c2nccn2C)nc2sc(-c3ccccc3Cl)c(-c3ccc(OC)cc3)c12 [drawing 560],–,–,–,–,–,–,–,–,IC50 [4]: > 1000 nM; inhibition at 10 µM [4]: 76 to 100%; IC50 [5]: 750 to 1000 nM
Cn1ccc(-c2sc3nc(-c4nccn4C)nc(N[C@H]4C[C@@H](O)C4)c3c2-c2ccccc2)n1 [drawing 1043],A (1-25% inhibition),C (51-75% inhibition),0%,0%,1 to 25%,1 to 25%,26 to 50%,26 to 50%,–
CO[C@H]1CC[C@@H](Nc2nc(-c3nccn3C)nc3sc(-c4ccn(C(C)C)n4)c(C)c23)C1 [drawing 1054],D (76-100% inhibition),C (51-75% inhibition),51 to 75%,51 to 75%,51 to 75%,51 to 75%,76 to 100%,76 to 100%,–

# The next lines start with results.
HRAS wild type + SOS: % inh. (HRas wild type),HRas wild type % inh. (HRas wild type),inhibition at 20 µM (KRas G12D mutant; [7]),inhibition at 20 µM (KRas G12D mutant; [8]),inhibition at 20 µM (Rac-1; [9]),inhibition at 20 µM (Rac-1; [10]),inhibition at 20 µM (Rho-A; [11]),inhibition at 20 µM (Rho-A; [12]),SMILES,other results
A (1-25% inhibition),C (51-75% inhibition),0%,0%,1 to 25%,1 to 25%,1 to 25%,26 to 50%,Cn1ccc(-c2sc3nc(-c4nccn4C)nc(N[C@@H]4CC[C@H](O)C4)c3c2C2=CC=CCC=C2)n1 (racemic),–
D (76-100% inhibition),B (26-50% inhibition),51 to 75%,26 to 50%,76 to 100%,51 to 75%,51 to 75%,51 to 75%,CO[C@H]1C[C@@H](Nc2nc(-c3nccn3C)nc3sc(-c4ccn(C)n4)c(-c4ccccc4)c23)C1.Cl [drawing 1040],–
D (76-100% inhibition),B (26-50% inhibition),–,–,–,–,–,–,COc1cccc(-c2sc3nc(-c4nccn4C)nc(NC4CCC(OC)C4)c3c2-c2ccccc2)c1F (centres unmarked) [drawing 1020],"KRas G12D mutant + SOS: % inh. (KRas G12D mutant; with SOS): C (51-75% inhibition); KRas G12D mutant: % inh. (KRas G12D mutant; without SOS): B (26-50% inhibition); Rac-1 + SOS: % inh. (Rac-1; at 20 μM, with SOS): B (26-50% inhibition); Rac-1: % inh. (Rac-1; at 20 μM, without SOS): C (51-75% inhibition); Rho-A + SOS: % inh. (Rho-A; with SOS): A (1-25% inhibition); Rho-A: % inh. (Rho-A; without SOS): A (1-25% inhibition)"
D (76-100% inhibition),B (26-50% inhibition),51 to 75%,26 to 50%,51 to 75%,51 to 75%,51 to 75%,51 to 75%,CO[C@H]1C[C@H](Nc2nc(-c3nccn3C)nc3sc(-c4ccn(C)n4)c(-c4ccccc4)c23)C1 [drawing 1041],–
D (76-100% inhibition),B (26-50% inhibition),51 to 75%,26 to 50%,51 to 75%,51 to 75%,51 to 75%,51 to 75%,CN(C)CCOCCNc1nc(-c2nccn2C)nc2sc(-c3ccn(C)n3)c(-c3ccccc3)c12 [drawing 1042],–
D (76-100% inhibition),C (51-75% inhibition),51 to 75%,51 to 75%,76 to 100%,76 to 100%,51 to 75%,76 to 100%,CO[C@H]1C[C@@H](Nc2nc(-c3ccccn3)nc3sccc23)C1 [drawing 1037],–
